The results in this text go back to US11897898B2, “Pyridine macrocycle compounds as ASK1 inhibiting agents” (BIOGEN MA INC., priority 2018, dated 2024).

Test [1] deals with T1, ASK1 T838 auto phosphorylation (Homo sapiens, UniProt Q99683).
T1 construct: ASK1-V5 tagged full length plasmid; expressed in transfected cells; host or cells: HEK-293T
T1 sequence (Q99683 1-1374): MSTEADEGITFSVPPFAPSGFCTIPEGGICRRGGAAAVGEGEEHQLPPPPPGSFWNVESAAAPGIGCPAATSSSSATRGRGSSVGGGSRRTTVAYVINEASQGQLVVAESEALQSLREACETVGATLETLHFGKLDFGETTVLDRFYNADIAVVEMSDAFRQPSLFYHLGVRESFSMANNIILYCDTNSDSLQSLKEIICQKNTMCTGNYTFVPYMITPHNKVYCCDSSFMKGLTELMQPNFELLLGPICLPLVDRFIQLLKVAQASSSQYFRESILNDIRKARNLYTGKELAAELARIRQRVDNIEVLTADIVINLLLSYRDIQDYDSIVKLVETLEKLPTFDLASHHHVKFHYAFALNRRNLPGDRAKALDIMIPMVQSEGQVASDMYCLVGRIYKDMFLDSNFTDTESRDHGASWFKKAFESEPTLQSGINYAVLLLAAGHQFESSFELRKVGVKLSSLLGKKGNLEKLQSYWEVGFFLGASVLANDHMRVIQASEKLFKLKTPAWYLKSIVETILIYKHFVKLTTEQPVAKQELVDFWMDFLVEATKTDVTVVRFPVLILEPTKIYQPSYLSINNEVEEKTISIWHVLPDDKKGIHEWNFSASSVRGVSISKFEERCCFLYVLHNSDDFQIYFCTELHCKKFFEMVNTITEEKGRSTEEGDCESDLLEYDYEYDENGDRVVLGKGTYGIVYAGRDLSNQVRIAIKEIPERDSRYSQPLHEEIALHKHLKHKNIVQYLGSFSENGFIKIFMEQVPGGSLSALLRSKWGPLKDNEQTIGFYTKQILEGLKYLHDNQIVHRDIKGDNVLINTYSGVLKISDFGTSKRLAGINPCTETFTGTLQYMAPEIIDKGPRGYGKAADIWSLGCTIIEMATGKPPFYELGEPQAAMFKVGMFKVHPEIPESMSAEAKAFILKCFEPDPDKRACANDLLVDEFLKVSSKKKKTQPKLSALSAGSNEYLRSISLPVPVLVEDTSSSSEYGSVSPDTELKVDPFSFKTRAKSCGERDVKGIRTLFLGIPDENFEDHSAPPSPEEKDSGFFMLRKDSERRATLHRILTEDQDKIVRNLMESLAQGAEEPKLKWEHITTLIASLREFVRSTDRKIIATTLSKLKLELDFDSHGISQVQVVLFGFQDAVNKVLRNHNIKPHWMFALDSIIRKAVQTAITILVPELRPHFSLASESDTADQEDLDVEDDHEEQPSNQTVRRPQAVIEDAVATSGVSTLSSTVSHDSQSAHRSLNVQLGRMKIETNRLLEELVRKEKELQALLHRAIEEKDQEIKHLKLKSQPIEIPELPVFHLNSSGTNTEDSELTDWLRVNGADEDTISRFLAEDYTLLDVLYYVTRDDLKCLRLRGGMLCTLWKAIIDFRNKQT
In words: ASK1 (AUTO PHOS T838) assay in HEK-293T cells, MSD format. It counts as cell-based. As to conditions: HEK-293T cells transfected with ASK1-V5, 1 hr compound incubation; class symbols. The protocol:
ASK1 T838 auto phosphorylation was measured in HEK-293T cells using MSD assay format. HEK 293T cells were seeded in 15 cm plates at a density of 18 million cells and 20 mL DMEM with 10% FBS, Pen/Strep media. The plates were incubated at 37° C. overnight. Media on plates was changed to OPTI-MEM, serum free media and cells were transfected with 9 μg of ASK1-V5 tagged full length plasmid using Lipofectamine 2000 (Invitrogen) and the plates were incubated at 37° C. overnight. Cells were trypsinized, counted on Nexcellometer and plated into 96 well tissue culture plates with 100,000 cells/well and 200 μL media. Cells were incubated for 4 hr at 37° C. then ASK1 compounds were added using a HP 300e. Compounds were tested at 20 μM with 3 fold, 10 point dilution points then incubated for 1 hr at 37° C. A lysis buffer (Cell Signaling) was prepared with protease and phosphatase inhibitor and maintained at 4° C. until use. Media from cells was discarded and 120 μL of cold lysis buffer was added to the cells, the plate was shaken 4° C. for 1 hr. Lysate was mixed using Apricot liquid handler; aspirating up and down 16 times at high speed using 50 μL volume. 50 μL of cell lysates were transferred to a pre-coated MSD plates containing mouse anti-V5 antibody (1:500 dilution) and washed 3× with MSD wash buffer (TBST) and blocked with a 3% BSA solution. Plates were then incubated on a plate shaker overnight at 4° C. Plates were washed 3× with MSD wash buffer and 50 μL of rabbit anti-pASK1 T838 antibody was added to the wells and incubated for 2 hr at room temperature on a plate shaker. Plates were then washed and 50 μL of goat anti-rabbit sulfa-tag (1:500 dilution) was added to wells, and incubated for 1 hr at room temperature on a plate shaker. Plates were washed 3× and 150 μL of 2×MSD Read buffer was added to wells. Plates were immediately read on a MSD Instrument Reader where chemoluminecense signal was measured. Data was analyzed using Graph Pad or Genedata, the data was normalized and plotted, % activity versus log of compound concentration. The IC50 values were obtained from a 4 parameter fit.

In another test the target is T2, ASK1/MAP3K5 (Homo sapiens, UniProt Q99683).
T2 construct: purchased Reaction Biology Corp. (Malvern, Pa.)
T2 sequence (Q99683 1-1374): T1 sequence (Q99683 1-1374)
Nature of the test: ASK1 enzyme assay (ASK1/MAP3K5 assay by Reaction Biology Corp., 33P-ATP filter-binding). Format: biochemical. As to conditions: 20 μM myelin basic protein and 10 μM ATP; class symbols. As for the experimental part:
The protein kinase inhibitory activity of the compounds described herein were tested using the ASK1/MAP3K5 assay by Reaction Biology Corp. (Malvern, Pa.). The assay procedure follows (and is also available on the Reaction Biology Corp. website). • Base Reaction Buffer: 20 mM Hepes (pH 7.5), 10 mM MgCl2, 1 mM EGTA, • 0.02% Brij35, 0.02 mg/mL BSA, 0.1 mM Na3VO4, 2 mM DTT, 1% DMSO; • Substrate: 20 μM of myelin basic protein (MBP) and 10 μM ATP; • Protein kinase: ASK1/MAP3K5. • Reaction Procedure: • 1. Prepare indicated substrate in freshly prepared Base Reaction Buffer. • 2. Deliver any required cofactors to the substrate solution. • 3. Deliver indicated kinase into the substrate solution and gently mix. • 4. Deliver compounds in DMSO into the kinase reaction mixture by Acoustic; technology (Echo550; nanoliter range), incubate for 20 minutes at room temperature. • 5. Deliver ^33P-ATP (specific activity 10 μCi/μL) into the reaction mixture to initiate the reaction. • 6. Incubate kinase reaction for 2 hours at room temperature. • 7. Reactions are spotted onto P81 ion exchange paper. • 8. Detect kinase activity by filter-binding method.

The IC50 is the concentration that inhibits the measured activity by half. As for `C[C@@H]1CN(c2cnc3c(c2)C(=O)Nc2cccc(n2)-c2nncn2[C@@H](C)CCCO3)C[C@H](C)N1` [Compound 11, (S)-5^5-((3S,5R)-3,5-Dimethylpiperazin-1-yl)-10-methyl-1^4H-6-oxa-3-aza-2(2,6),5(3,2)-dipyridina-1(3,4)-triazolacyclodecaphan-4-one], the IC50 (in test [1]; on ASK1/MAP3K5) was at most 0.1 µM throughout. In the case of `C[C@H]1CCCOc2ncc(-n3cncc3C3CC3)cc2C(=O)Nc2cccc(n2)-c2nncn21` (single isomer, unassigned) [Compound 33], the IC50 is 0.1 to 1 µM in test [1] and at most 0.1 µM at ASK1/MAP3K5. Taken in the same sequence, the figures for `C[C@@H]1CN(c2cnc3c(c2)C(=O)Nc2cccc(n2)-c2nncn2[C@@H](C)CCCO3)CCN1C` (single isomer, unassigned) [Compound 12] were at most 0.1 µM and at most 0.1 µM. Take `C[C@H]1CCCOc2ncc(-n3ccc(C(F)(F)F)n3)cc2C(=O)Nc2cccc(n2)-c2nncn21` [Compound 29, (S)-10-Methyl-5^5-(3-(trifluoromethyl)-1H-pyrazol-1-yl)-1^4H-6-oxa-3-aza-2(2,6),5(3,2)-dipyridina-1(3,4)-triazolacyclodecaphan-4-one]: in test [1], the IC50 lay in the range of 0.1 to 1 µM.

`C[C@@H]1CCCOc2ncc(-c3ccncc3)cc2C(=O)Nc2cccc(n2)-c2nncn21` [Compound 18, (R)-10-Methyl-5^5-(pyridin-4-yl)-1^4H-6-oxa-3-aza-2(2,6),5(3,2)-dipyridina-1(3,4)-triazolacyclodecaphan-4-one] registered an IC50 in test [1] of 1 to 10 µM. For `C[C@H]1CCCOc2ncc(C#CC3CC3)cc2C(=O)Nc2cccc(n2)-c2nncn21` [Compound 35, (S)-5^5-(Cyclopropylethynyl)-10-methyl-1^4H-6-oxa-3-aza-2(2,6),5(3,2)-dipyridina-1(3,4)-triazolacyclodecaphan-4-one], the IC50 in test [1] was 0.1 to 1 µM. On the same count and under the same terms, next, `Cc1cnn(-c2cnc3c(c2)C(=O)Nc2cccc(n2)-c2nncn2[C@@H](C)CCCO3)c1` [Compound 27, (S)-10-Methyl-5^5-(4-methyl-1H-pyrazol-1-yl)-1^4H-6-oxa-3-aza-2(2,6),5(3,2)-dipyridina-1(3,4)-triazolacyclodecaphan-4-one]: 0.1 to 1 µM. With `C[C@H]1CCCOc2ncc(C3CN(C(=O)OC(C)(C)C)C3)cc2C(=O)Nc2cccc(n2)-c2nncn21` [Compound 46, tert-Butyl (S)-3-(10-methyl-4-oxo-1^4H-6-oxa-3-aza-2(2,6),5(3,2)-dipyridina-1(3,4)-triazolacyclodecaphane-5^5-yl)azetidine-1-carboxylate], the IC50 (in test [1]; at ASK1/MAP3K5) was at most 0.1 µM throughout. In test [1], `C[C@@H]1CCCOc2ncc(N3CCOCC3)cc2C(=O)Nc2cccc(n2)-c2nncn21` [Compound 6, (R)-10-Methyl-5^5-morpholino-1^4H-6-oxa-3-aza-2(2,6),5(3,2)-dipyridina-1(3,4)-triazolacyclodecaphan-4-one] showed an IC50 of 1 to 10 µM. With `C[C@H]1CCCOc2ncc(C(C)(C)O)cc2C(=O)Nc2cccc(n2)-c2nncn21` [Compound 39, (S)-5^5-(2-Hydroxypropan-2-yl)-10-methyl-1^4H-6-oxa-3-aza-2(2,6),5(3,2)-dipyridina-1(3,4)triazolacyclodecaphan-4-one], the IC50 is 0.1 to 1 µM in test [1] and at most 0.1 µM at ASK1/MAP3K5.

For `C[C@H]1CCCOc2ncc(C3COC3)cc2C(=O)Nc2cccc(n2)-c2nncn21` [Compound 45, (S)-10-Methyl-5^5-(oxetan-3-yl)-1^4H-6-oxa-3-aza-2(2,6),5(3,2)-dipyridina-1(3,4)-triazolacyclodecaphan-4-one], the IC50 (in test [1]; at ASK1/MAP3K5) was at most 0.1 µM throughout.

In test [1], `C[C@H]1CCCOc2ncc(S(C)(=O)=O)cc2C(=O)Nc2cccc(n2)-c2nncn21` [Compound 43, (S)-10-Methyl-5^5-(methylsulfonyl)-1^4H-6-oxa-3-aza-2(2,6),5(3,2)-dipyridina-1(3,4)-triazolacyclodecaphan-4-one] showed an IC50 of 0.1 to 1 µM. On the same count and under the same terms, for `C[C@H]1CCCOc2ncc(C3CCN(C)CC3)cc2C(=O)Nc2cccc(n2)-c2nncn21` [Compound 16, (S)-10-Methyl-5^5-(1-methylpiperidin-4-yl)-1^4H-6-oxa-3-aza-2(2,6),5(3,2)-dipyridina-1(3,4)-triazolacyclodecaphan-4-one] the value was at most 0.1 µM; for `C#Cc1cnc2c(c1)C(=O)Nc1cccc(n1)-c1nncn1[C@@H](C)CCCO2` [Compound 34, (S)-5^5-Ethynyl-10-methyl-1^4H-6-oxa-3-aza-2(2,6),5(3,2)-dipyridina-1(3,4)-triazolacyclodecaphan-4-one], 0.1 to 1 µM; for `C[C@H]1CCCOc2ncc(C3CC3)cc2C(=O)Nc2cccc(n2)-c2nncn21` [Compound 36, (S)-5^5-Cyclopropyl-10-methyl-1^4H-6-oxa-3-aza-2(2,6),5(3,2)-dipyridina-1(3,4)-triazolacyclodecaphan-4-one], 0.1 to 1 µM. Compound `C[C@H]1CCCOc2ncc(-c3cnn(C)c3)cc2C(=O)Nc2cccc(n2)-c2nncn21` [Compound 26, (S)-10-Methyl-5^5-(1-methyl-1H-pyrazol-4-yl)-1^4H-6-oxa-3-aza-2(2,6),5(3,2)-dipyridina-1(3,4)-triazolacyclodecaphan-4-one] yielded an IC50 in test [1] of at most 0.1 µM. As to `C[C@H]1CCCOc2ncc(-c3cncnc3)cc2C(=O)Nc2cccc(n2)-c2nncn21` [Compound 21, (S)-10-Methyl-5^5-(pyrimidin-5-yl)-1^4H-6-oxa-3-aza-2(2,6),5(3,2)-dipyridina-1(3,4)-triazolacyclodecaphan-4-one], the IC50 on ASK1/MAP3K5 is at most 0.1 µM.
